Legend:
Experiment in all cases: Indoor virulence and combined effect, greenhouse pot test, post-emergence stem and leaf spray, fresh weight inhibition
Type in all cases: in vivo
lolium multiflorum = test system: lolium multiflorum
Experimental: (§1) The active ingredients A and B are respectively screened and an indoor combined effect of the composition on weeds was evaluated by an indoor test and a field test, to determine a combined effect of the composition on weeds.
(§2) Quantitative seeds of Poaceae weeds (echinochloa crusgalli, Digitaria sanguinalis, setaria viridis, Eleusine indica, avena fatua, alopecurus japonicus, alopecurus aequalis, Lolium multiflorum) and broadleaf weeds (eclipta prostrata, rorippa dubia, Abutilon theophrasti, conyza canadensis, veronica persica, myosoton aquaticum, polygonum lapathifolium, galium aparine var. tenerum, alisma plantago-aquatica, geranium carolinianum) were sown in paper cup containing nutrient soil with a diameter of 7 cm, covered with soil for 1 cm after sowing. After pressing and watering, they were cultured in a greenhouse according to a conventional method. Poaceae weeds grew to 3˜4 leaf stage, broad-leaved weeds grew to 4˜6 leaf stage, spraying treatment to both stem and leaf was performed; and pre-seedling soil spray treatment was performed 24 hours after sowing. Following an experimental design dosage, a WP-2000 walking spray tower (spindle speed 96 mm/r, spray height 200 mm, effective spray amplitude of nozzle 350 mm, nozzle flow rate 390 mL/min, nozzle walking speed 210 mm/s) was used for the spray treatment. The experiment was repeated three times. After being treated, a sample material is placed in an operation hall, and after the drug solution is naturally dried out, the sample material is placed in a greenhouse and managed according to the conventional method. A reaction of weeds to the drug agent is observed and recorded, and a regularly visual check of a control effect of the drug agent on weeds was performed after the treatment.
(§3) All of original drugs were using acetone as a solvent, being diluted with 0.1 wt % emulsifier of Tween-80 aqueous solution, and being diluted right before using.
(§4) When determining a ratio or content of the active ingredient A and the active ingredient B, it should be measured from characteristics of action of both agents and virulence thereof, as well as the main purpose of use of a formula shall also be considered in. In the present study, on a basis of previous pre-test, the dosages of the active ingredient A and the active ingredient B were set, when being used alone and mixed, as shown in the following table. Water containing no agent, but containing the same solvent and emulsifier was used as a blank control.
(§5) Repeat 4 times for each treatment, 3 pots per treatment each time and 30 weed seeds were sown for each pot.
(§6) Adopting an absolute number survey method, using a blade to cut the whole seedling of surviving weed along soil surface, and weighting the fresh weight of the weed with an analytical balance. For weeds that had died, counting the fresh weight as zero.
(§7) Survey period and frequency: 21 days after the treatment, total 1 investigation.
(§8) The theoretical fresh weight inhibition rate (E0-Expected Efficacy=[…]) of each treatment combination was calculated by Gowing method, and then compared with the measured inhibition rate (E-Observed Efficacy) to evaluate the combined effect type of both on weeds. When E-E0 value was greater than 10%, it was counted as a synergistic effect, less than −10%, it was counted as an antagonistic effect, and between −10%˜10%, it was counted as an additive effect. According to a plurality of factors including an actual control efficacy, a herbicide characteristic, a formula balance and other factors to determine the best ratio. In the formula, X is the fresh weight inhibition rate of the ingredient A at a dosage of P; Y is the fresh weight inhibition rate of the active ingredient B at a dosage of Q.
(§9) The statistical results are shown in Table 1 to Table 44 below, except for those marked clearly as “pre-emergence treatment”, all others are “post-emergence treatment”. […]

veronica persica = test system: veronica persica
Experimental: as §1, §2, §3, §4, §5, §6, §7, §8, §9

eclipta prostrata = test system: eclipta prostrata
Experimental: as §1, §2, §3, §4, §5, §6, §7, §8, §9

alopecurus japonicus = details: Table 25
Experimental: as §1, §2, §3, §4, §5, §6, §7, §8, §9

echinochloa crusgalli = details: for Fresh weight suppression rate %, B single dose: Table 22
Experimental: as §1
as §2, with “Following an experimental design dosage, a WP-2000 walking spray tower (spindle speed 96 mm/r, spray height 200 mm, effective spray amplitude of nozzle 350 mm, nozzle flow rate 390 mL/min, nozzle walking speed 210 mm/s) was used for the spray treatment.” left out, “method.” for “method. A reaction of weeds to the drug agent is observed and recorded, and a regularly visual check of a control effect of the drug agent on weeds was performed after the treatment.”
as §3, §4, §5, §6, §7
When E-E0 value was greater than 10%, it was counted as a synergistic effect, less than −10%, it was counted as an antagonistic effect, and between −10%˜10%, it was counted as an additive effect. […] In the formula, X is the fresh weight inhibition rate of the ingredient A at a dosage of P; Y is the fresh weight inhibition rate of the active ingredient B at a dosage of Q.

`CP(=O)(O)CCC(N)C(=O)O` (centres unmarked) [glufosinate-ammonium] was tested, and the “Fresh weight inhibition rate %, B single agent” value (shortened to “Fresh weight inhibition rate %”) (lolium multiflorum; Table 19, B 120 g a.i./ha) was 2.63%, the “Fresh weight inhibition rate %” value (lolium multiflorum; Table 19, B 210 g a.i./ha) was 12.20% and the “Fresh weight inhibition rate %” value (lolium multiflorum; Table 19, B 300 g a.i./ha) was 27.99%. For the same molecule, the “Fresh weight inhibition rate %” value (lolium multiflorum; Table 19, B 400 g a.i./ha) was 54.64%.
In the case of `c1cc[n+]2c(c1)-c1cccc[n+]1CC2` [diquat], the “Fresh weight inhibition rate %” value (lolium multiflorum; Table 27, B 300 g a.i./ha) is reported as 31.27%, the “Fresh weight inhibition rate %” value (lolium multiflorum; Table 27, B 400 g a.i./ha) is reported as 36.44% and the “Fresh weight inhibition rate %” value (lolium multiflorum; Table 27, B 495 g a.i./ha) is reported as 41.37%.
With `CC(C)N1C(=O)c2ccccc2NS1(=O)=O` [bentazone-sodium] the inhibition at 300 g/ha (veronica persica; Veronica persica, 504 h, Table 9, 300 g a.i./ha, post-emergence, 21 days after treatment, read-out: Fresh weight inhibition rate %, B single agent) was 30.5%, the inhibition at 450 g/ha (veronica persica; Veronica persica, 504 h, Table 9, 450 g a.i./ha, post-emergence, 21 days after treatment, read-out: Fresh weight inhibition rate %, B single agent) was 41.9% and the inhibition at 525 g/ha (veronica persica; Veronica persica, 504 h, Table 9, 525 g a.i./ha, post-emergence, 21 days after treatment, read-out: Fresh weight inhibition rate %, B single agent) was 53.3%.
In the case of `Nc1c(Cl)c(Cl)nc(C(=O)O)c1Cl` [picloram-potassium, picloram], the “Fresh weight inhibition rate %” value (veronica persica; Table 26, B 450 g a.i./ha) is reported as 42.89%, the “Fresh weight inhibition rate %” value (veronica persica; Table 26, B 525 g a.i./ha) is reported as 47.46% and the “Fresh weight inhibition rate %” value (veronica persica; Table 26, B 600 g a.i./ha) is reported as 50.25%. The “Fresh weight inhibition rate %” value (veronica persica; Table 26, B 600 g a.i./ha (row 2 + 600)) was 50.25%.
With `CNC.COc1c(Cl)ccc(Cl)c1C(=O)O` [dicamba-dimethylammonium] the “Fresh weight inhibition rate %” value (veronica persica; Table 24, B 40 g a.i./ha) was 11.68%, the “Fresh weight inhibition rate %” value (veronica persica; Table 24, B 60 g a.i./ha) was 25.89% and the “Fresh weight inhibition rate %” value (veronica persica; Table 24, B 80 g a.i./ha) was 37.82%. For the same molecule, the “Fresh weight inhibition rate %” value (veronica persica; Table 24, B 100 g a.i./ha) was 38.58%.
In the case of `CCCCC(CC)COC(=O)COc1ccc(Cl)cc1Cl` [2,4-D-etexyl], the “Fresh weight inhibition rate %” value (veronica persica; Table 23, B 195 g a.i./ha) is reported as 30.42%, the “Fresh weight inhibition rate %” value (veronica persica; Table 23, B 275 g a.i./ha) is reported as 40.62% and the “Fresh weight inhibition rate %” value (veronica persica; Table 23, B 350 g a.i./ha) is reported as 50.28%.
`CCCCCCC(C)OC(=O)COc1nc(F)c(Cl)c(N)c1Cl` (centres unmarked) [fluroxypyr-meptyl] was tested, and the “Fresh weight inhibition rate %” value (eclipta prostrata; Table 42, B 32 g a.i./ha) was 30.91%, the “Fresh weight inhibition rate %” value (eclipta prostrata; Table 42, B 40 g a.i./ha) was 34.55% and the “Fresh weight inhibition rate %” value (eclipta prostrata; Table 42, B 60 g a.i./ha) was 39.55%. For the same molecule, the “Fresh weight inhibition rate %” value (eclipta prostrata; Table 42, B 80 g a.i./ha) was 73.18%.
`COC(=O)CCNC(=O)C(C)Sc1cc(-n2c(=O)cc(C(F)(F)F)n(C)c2=O)c(F)cc1Cl` (centres unmarked) [tiafenacil] was tested, and the “Fresh weight inhibition rate %” value (lolium multiflorum; Table 38, B 10 g a.i./ha) was 8.27%, the “Fresh weight inhibition rate %” value (lolium multiflorum; Table 38, B 15 g a.i./ha) was 15.26% and the “Fresh weight inhibition rate %” value (lolium multiflorum; Table 38, B 20 g a.i./ha) was 22.42%.
For `CP(=O)(O)CC[C@H](N)C(=O)O.N` [glufosinate-P-ammonium], the “Fresh weight inhibition rate %” value (lolium multiflorum; Table 20, B 200 g a.i./ha) was 8.61%, the “Fresh weight inhibition rate %” value (lolium multiflorum; Table 20, B 300 g a.i./ha) was 74.40% and the “Fresh weight inhibition rate %” value (lolium multiflorum; Table 20, B 350 g a.i./ha) was 78.23%. The “Fresh weight inhibition rate %” value (lolium multiflorum; Table 20, B 400 g a.i./ha) was 83.04%.
`COC(=O)[C@@H](C)Oc1ccc(Oc2ncc(C(F)(F)F)cc2Cl)cc1` [haloxyfop-P-methyl] was tested, and the “Fresh weight inhibition rate %” value (alopecurus japonicus; B 15 g a.i./ha) was 7.80%, the “Fresh weight inhibition rate %” value (alopecurus japonicus; B 25 g a.i./ha) was 15.29% and the “Fresh weight inhibition rate %” value (alopecurus japonicus; B 40 g a.i./ha) was 15.32%. The “Fresh weight inhibition rate %” value (alopecurus japonicus; B 60 g a.i./ha) was 27.52%.
With `C=CCOC(=O)C(C)(C)OC(=O)c1cc(-n2c(=O)cc(C(F)(F)F)n(C)c2=O)ccc1Cl` [butafenacil] the “Fresh weight inhibition rate %” value (lolium multiflorum; Table 34, B 7.5 g a.i./ha) was 29.47%, the “Fresh weight inhibition rate %” value (lolium multiflorum; Table 34, B 12.5 g a.i./ha) was 36.55% and the “Fresh weight inhibition rate %” value (lolium multiflorum; Table 34, B 20 g a.i./ha) was 43.60%. The “Fresh weight inhibition rate %” value (lolium multiflorum; Table 34, B 30 g a.i./ha) was 53.40%.
`CCOC(=O)COC(=O)c1cc(Oc2ccc(C(F)(F)F)cc2Cl)ccc1[N+](=O)[O-]` [fluoroglycofen-ethyl] was tested, and the “Fresh weight inhibition rate %” value (eclipta prostrata; Table 12, B 8 g a.i./ha) was 11.99%, the “Fresh weight inhibition rate %” value (eclipta prostrata; Table 12, B 16 g a.i./ha) was 27.44% and the “Fresh weight inhibition rate %” value (eclipta prostrata; Table 12, B 20 g a.i./ha) was 42.03%.
`COc1cc(OC)nc(Oc2cccc(Oc3nc(OC)cc(OC)n3)c2C(=O)O)n1` [bispyribac-sodium] gave an inhibition at 5 g/ha (echinochloa crusgalli; Echinochloa crus-galli, 504 h, Table 4, 5 g a.i./ha, post-emergence, 21 days after treatment, read-out: Fresh weight inhibition rate %, B single agent) of 14.3%, an inhibition at 10 g/ha (echinochloa crusgalli; Echinochloa crus-galli, 504 h, Table 4, 10 g a.i./ha, post-emergence, 21 days after treatment, read-out: Fresh weight inhibition rate %, B single agent) of 21.9% and an inhibition at 25 g/ha (echinochloa crusgalli; Echinochloa crus-galli, 504 h, Table 4, 25 g a.i./ha, post-emergence, 21 days after treatment, read-out: Fresh weight inhibition rate %, B single agent) of 30.1%.
With `C#CCN1C(=O)COc2cc(F)c(N3C(=O)C4=C(CCCC4)C3=O)cc21` [flumioxazin] the “Fresh weight inhibition rate %” value (eclipta prostrata; Table 11, B 8 g a.i./ha) was 24.97%, the “Fresh weight inhibition rate %” value (eclipta prostrata; Table 11, B 16 g a.i./ha) was 39.68% and the “Fresh weight inhibition rate %” value (eclipta prostrata; Table 11, B 20 g a.i./ha) was 45.24%. The “Fresh weight inhibition rate %” value (eclipta prostrata; Table 11, B 30 g a.i./ha) was 54.24%.
With `N#Cc1cnn(-c2nn3c(c2Cl)CCCC3)c1NCC1CC1` [cyclopyranil] the “Fresh weight inhibition rate %” value (echinochloa crusgalli; Table 37, B 12.5 g a.i./ha) was 24.73%, the “Fresh weight inhibition rate %” value (echinochloa crusgalli; Table 37, B 20 g a.i./ha) was 25.46% and the “Fresh weight inhibition rate %” value (echinochloa crusgalli; Table 37, B 30 g a.i./ha) was 31.50%. The “Fresh weight inhibition rate %” value (echinochloa crusgalli; Table 37, B 40 g a.i./ha) was 39.05%.
In the case of `Cc1cc(Cl)ccc1OCC(=O)[O-].[Na+]` [MCPA-sodium], the “Fresh weight inhibition rate %” value (eclipta prostrata; Table 43, B 80 g a.i./ha) is reported as 37.73% and the “Fresh weight inhibition rate %” value (eclipta prostrata; Table 43, B 160 g a.i./ha) is reported as 45.00%.
With `COCc1cnc(C2=NC(C)(C(C)C)C(=O)N2)c(C(=O)[O-])c1.[Na+]` (centres unmarked) [imazamox-sodium] the “Fresh weight inhibition rate %” value (echinochloa crusgalli; Table 3, 15 g a.i./ha, post-emergence, 21 days after treatment) was 2.52% and the “Fresh weight inhibition rate %” value (echinochloa crusgalli; Table 3, 20 g a.i./ha, post-emergence, 21 days after treatment) was 13.41%.
With `COP(=S)(OC)SCC(=O)N(c1ccc(Cl)cc1)C(C)(C)C` [anilofos] the “Fresh weight suppression rate %, B single dose” value (shortened to “Fresh weight suppression rate %”) (echinochloa crusgalli; B 60 g a.i./ha) was 37.41%, the “Fresh weight suppression rate %” value (echinochloa crusgalli; B 80 g a.i./ha) was 41.96% and the “Fresh weight suppression rate %” value (echinochloa crusgalli; B 105 g a.i./ha) was 46.85%. The “Fresh weight suppression rate %” value (echinochloa crusgalli; B 120 g a.i./ha) was 64.69%.
